Assay [1] has as its system Aorta. Kind of assay: Vasorelaxant activity against norepinephrine-induced contraction in Wistar rat thoracic aorta at 30 uM. The format is functional, tissue-based.
The test system of assay [2] is Aorta. Kind of assay: Vasorelaxant activity against norepinephrine-induced contraction in Wistar rat thoracic aorta at 100 uM. The format is functional, tissue-based.

The source made the active and inactive calls. The calls are words filed in the database; no cut-off is given here.

Drawing on ChEMBL document CHEMBL1158839, “Dichotomins J and K, vasodilator cyclic peptides from Stellaria dichotoma” (J Nat Prod, 2005), this text covers Activity for two molecules.

`CC[C@@H](C)[C@@H]1NC(=O)CNC(=O)[C@H](C)NC(=O)[C@H](Cc2ccc(O)cc2)NC(=O)[C@H](CC(C)C)NC(=O)[C@H](Cc2ccccc2)NC1=O`: the outcome in the assay on Aorta [1] was Active.

Turning to `CC[C@@H](C)[C@@H]1NC(=O)[C@H](C(C)C)NC(=O)[C@H](Cc2ccc(O)cc2)NC(=O)[C@H](Cc2ccc(O)cc2)NC(=O)[C@@H]2CCCN2C(=O)[C@H]([C@H](C)CC)NC(=O)[C@H](C(C)C)NC(=O)[C@H](C)NC(=O)[C@@H]2CCCN2C1=O`, the outcome in the assay with Aorta [2] was Active.
